Measured values as given in patent publication US7102009B2, “Substituted amine derivatives and methods of use” (Amgen Inc., priority 2001, dated 2006).

Test system: Human Umbilical Vein Endothelial cells (VEGF-stimulated HUVEC proliferation)
Experiment: HUVEC Proliferation Assay (VEGF-stimulated)
Assay type: cell-based
Settings: VEGF 50 ng/mL, 72 h incubation, CyQuant readout, read-out: inhibited VEGF-stimulated HUVEC proliferation at a level below (IC50)
Method: Human Umbilical Vein Endothelial cells are purchased from Clonetics, Inc., as cryopreserved cells harvested from a pool of donors. These cells, at passage 1, are thawed and expanded in EBM-2 complete medium, until passage 2 or 3. The cells are trypsinized, washed in DMEM+10% FBS+antibiotics, and spun at 1000 rpm for 10 min. Prior to centrifugation of the cells, a small amount is collected for a cell count. After centrifugation, the medium is discarded, and the cells are resuspended in the appropriate volume of DMEM+10% FBS+antibiotics to achieve a concentration of 3×10^5 cells/mL. Another cell count is performed to confirm the cell concentration. The cells are diluted to 3×10^4 cells/mL in DMEM+10% FBS+antibiotics, and 100 μL of cells are added to a 96-well plate. The cells are incubated at 37° C. for 22 h.
Prior to the completion of the incubation period, compound dilutions are prepared. Five-point, five-fold serial dilutions are prepared in DMSO, at concentrations 400-fold greater than the final concentrations desired. 2.5 μL of each compound dilution are diluted further in a total of 1 mL DMEM+10% FBS+antibiotics (400× dilution). Medium containing 0.25% DMSO is also prepared for the 0 μM compound sample. At the 22-hour timepoint, the medium is removed from the cells, and 100 μL of each compound dilution is added. The cells are incubated at 37° C. for 2-3 h.
During the compound pre-incubation period, the growth factors are diluted to the appropriate concentrations. Solutions of DMEM+10% FBS+antibiotics, containing either VEGF or bFGF at the following concentrations: 50, 10, 2, 0.4, 0.08, and 0 ng/mL are prepared. For the compound-treated cells, solutions of VEGF at 550 ng/mL or bFGF at 220 ng/mL for 50 ng/mL or 20 ng/mL final concentrations, respectively, are prepared since 10 μL of each will be added to the cells (110 μL final volume). At the appropriate time after adding the compounds, the growth factors are added. VEGF is added to one set of plates, while bFGF is added to another set of plates. For the growth factor control curves, the media on wells B4-G6 of plates 1 and 2 are replaced with media containing VEGF or bFGF at the varying concentrations (50-0 ng/mL). The cells are incubated at 37° C. for an additional 72 h.
At the completion of the 72 h incubation period, the medium is removed, and the cells are washed twice with PBS. After the second wash with PBS, the plates are tapped gently to remove excess PBS, and the cells are placed at −70° C. for at least 30 min. The cells are thawed and analyzed using the CyQuant fluorescent dye (Molecular Probes C-7026), following the manufacturer's recommendations. The plates are read on a Victor/Wallac 1420 workstation at 485 nm/530 nm (excitation/emission). Raw data are collected and analyzed using a 4-parameter fit equation in XLFit. IC50 values are then determined.

| SMILES | IC50 [µM] |
| --- | --- |
| O=C(Nc1ccc2c(c1)-c1nncn1CC2)c1cccnc1Nc1ccc2cn[nH]c2c1 [Example 39, [2-(1H-Indazol-6-ylamino)(3-pyridyl)]-N-(5,6,7-trihydro-1,2,4-triazolo[3,4-a]isoquinolin-2-yl)carboxamide] | < 0.05 |
| O=C(Nc1ccc2c(c1)CN(CCN1CCOCC1)CC2)c1cccnc1Nc1ccc2cn[nH]c2c1 [Example 118, 2-(1H-Indazol-6-ylamino)-N-[2-(2-morpholin-4-yl-ethyl)-1,2,3,4-tetrahydro-isoquinolin-7-yl]-nicotinamide] | < 0.05 |
| CN1CCC(N2CC(C)(C)c3ccc(NC(=O)c4cccnc4Nc4ccc5cn[nH]c5c4)cc32)CC1 [Example 48, N-[3,3-Dimethyl-1-(1-methyl(4-piperidyl))indolin-6-yl][2-(1H-indazol-6-ylamino)(3-pyridyl)]carboxamide] | < 0.05 |
| O=C(Nc1ccc2ccn(CCN3CCOCC3)c2c1)c1cccnc1Nc1ccc2cn[nH]c2c1 [Example 62, [2-(1H-Indazol-6-ylamino)(3-pyridyl)]-N-[1-(2-morpholin-4-ylethyl)indol-6-yl]carboxamide] | < 0.05 |
| CN1CC=C(c2cc(NC(=O)c3cccnc3Nc3ccc4cn[nH]c4c3)cc(C(F)(F)F)c2)CC1 [Example 121, 2-(1H-Indazol-6-ylamino)-N-[3-(1-methyl-1,2,3,6-tetrahydro-pyridin-4-yl)-5-trifluoromethyl-phenyl]-nicotinamide] | < 0.05 |
| O=C(Nc1ccc(Cl)cc1)c1cccnc1Nc1ccc2cn[nH]c2c1 [Example 3, N-(4-Chlorophenyl)[2-(1H-indazol-6-ylamino)(3-pyridyl)]carboxamide] | < 0.05 |
| O=C(Nc1ccc(C(F)(F)C(F)(F)F)c(OC[C@H](O)CN2CCCC2)c1)c1cccnc1Nc1ccc2cn[nH]c2c1 [Example 80, N-[3-(2-Hydroxy-3-pyrrolidin-1-yl-propoxy)-4-pentafluoroethyl-phenyl]-2-(1H-indazol-6-ylamino)-nicotinamide] | < 0.05 |
| O=C(Nc1ccc(C(F)(F)C(F)(F)F)cc1)c1cccnc1Nc1cccc2c1CNC2=O [Example 602, 2-(1-Oxo-2,3-dihydro-1H-isoindol-4-ylamino)-N-(4-pentafluoroethyl-phenyl)-nicotinamide] | < 0.05 |
| CC(C)(C)OC(=O)N1CCC[C@H]1COc1cc(NC(=O)c2cccnc2Nc2ccc3cn[nH]c3c2)ccc1C(C)(C)C [Example 95, 1-Boc-2-(2-tert-Butyl-5-{[2-(1H-indazol-6-ylamino)-pyridine-3-carbonyl]-amino}-phenoxymethyl)-pyrrolidine] | < 0.05 |
| CC(=O)N1Cc2cc(NC(=O)c3cccnc3Nc3ccc4cn[nH]c4c3)ccc2C(C)(C)C1 [Example 94, N-(2-Acetyl-4,4-dimethyl-1,2,3,4-tetrahydro-isoquinolin-7-yl)-2-(1H-indazol-6-ylamino)-nicotinamide] | < 0.05 |
| O=C(Nc1cc(CCCN2CCCCC2)cc(C(F)(F)F)c1)c1cccnc1Nc1ccc2cn[nH]c2c1 [Example 71, 2-(1H-Indazol-6-ylamino)-N-[3-(3-piperidin-1-yl-propyl)-5-trifluoromethyl-phenyl]-nicotinamide] | < 0.05 |
| CC1(C)CNCc2cc(NC(=O)c3cccnc3Nc3ccc4[nH]c(=O)[nH]c4c3)ccc21 [Example 594, N-(4,4-Dimethyl-1,2,3,4-tetrahydro-isoquinolin-7-yl)-2-(2-oxo-2,3-dihydro-1H-benzoimidazol-5-ylamino)-nicotinamide] | < 0.05 |
| CC(=O)N1CC(C)(C)c2ccc(NC(=O)c3cccnc3Nc3ccc4cn[nH]c4c3)cc21 [Example 87, N-(1-Acetyl-3,3-dimethyl-2,3-dihydro-1H-indol-6-yl)-2-(1H-indazol-6-ylamino)-nicotinamide] | < 0.05 |
| CC1(C)CNCc2cc(NC(=O)c3cccnc3Nc3ccc4cn[nH]c4c3)ccc21 [Example 126, N-(4,4-Dimethyl-1,2,3,4-tetrahydro-isoquinolin-7-yl)-2-(1H-indazol-6-ylamino)-nicotinamide] | < 0.05 |
| CC1(C)CNc2cc(NC(=O)c3cccnc3Nc3ccc4cn[nH]c4c3)ccc21 [Example 99, N-(3,3dimethyl-2,3-dihydro-1H-indol-6-yl)-2-(1H-indazol-6-ylamino)-nicotinamide] | < 0.05 |
| CN1CCC[C@H]1COc1cc(NC(=O)c2cccnc2Nc2ccc3cn[nH]c3c2)ccc1C(F)(F)F [Example 616, 2-(1H-indazol-6-ylamino)-N-(3-((((2S)-1-methyl-2-pyrrolidinyl)methyl)oxy)-4-(trifluoromethyl)phenyl)-3-pyridinecarboxamide] | < 0.05 |
| O=C(Nc1ccc(C(O)(C(F)(F)F)C(F)(F)F)cc1)c1cccnc1Nc1ccc2cn[nH]c2c1 [Example 24] | < 0.05 |
| CN(C)CC(=O)N1CC(C)(C)c2ccc(NC(=O)c3cccnc3Nc3ccc4cn[nH]c4c3)cc21 [Example 107, N-[1-(2-Dimethylamino-acetyl)-3,3-dimethyl-2,3-dihydro-1H-indol-6-yl]-2-(1H-indazol-6-ylamino)-nicotinamide] | < 0.05 |
| CN(C)CCOc1n[nH]c2cc(Nc3ncccc3C(=O)Nc3ccc(C(C)(C)C)cc3)ccc12 [Example 40, [2-({3-[2-(Dimethylamino)ethoxy](1H-indazol-6-yl)}amino)(3-pyridyl)]-N-[4-(tert-butyl)phenyl]carboxamide] | < 0.05 |
| CC1(C)CNc2cc(NC(=O)c3cccnc3Nc3ccc4cn[nH]c4c3)ccc2O1 [Example 101, N-(2,2-Dimethyl-3,4-dihydro-2H-benzo[1,4]oxazin-6-yl)-2-(1H-indazol-6-ylamino)-nicotinamide] | < 0.05 |
| CC(C)(C)c1ccc(NC(=O)c2cccnc2Nc2ccc3cn[nH]c3c2)cc1/C=C/CCN1CCCC1 [Example 55, N-[3-((1E)-4-Pyrrolidinylbut-1-enyl)-4-(tert-butyl)phenyl][2-(1H-indazol-6-ylamino)(3-pyridyl)]carboxamide] | < 0.05 |
| O=C(Nc1cc(CCCN2CCOCC2)cc(C(F)(F)F)c1)c1cccnc1Nc1ccc2cn[nH]c2c1 [Example 70, 2-(1H-Indazol-6-ylamino)-N-[3-(3-morpholin-4-yl-propyl)-5-trifluoromethyl-phenyl]-nicotinamide] | < 0.05 |
| CN1CC=C(c2cc(NC(=O)c3cccnc3Nc3ccc4cn[nH]c4c3)ccc2C(C)(C)C)CC1 [Example 23] | < 0.05 |
| CC(C)N1CCN(c2cc(NC(=O)c3cccnc3Nc3ccc4cn[nH]c4c3)ccc2C(C)(C)C)CC1 [Example 103, N-[4-tert-Butyl-3-(4-isopropyl-piperazin-1-yl)-phenyl]-2-(1H-indazol-6-ylamino)-nicotinamide] | < 0.05 |
| CN1CCC(c2cc(NC(=O)c3cccnc3Nc3ccc4cn[nH]c4c3)cc(C(F)(F)F)c2)CC1 [Example 90, 2-(1H-Indazol-6-ylamino)-N-[3-(1-methyl-piperidin-4-yl)-5-trifluoromethyl-phenyl]-nicotinamide] | < 0.05 |
| O=C(Nc1ccc(C(F)(F)C(F)(F)F)c(OC[C@H]2CCCN2)c1)c1cccnc1Nc1ccc2cn[nH]c2c1 [Example 84, 2-(1H-Indazol-6-ylamino)-N-[4-pentafluoroethyl-3-(2R-pyrrolidin-2-ylmethoxy)-phenyl]-nicotinamide] | < 0.05 |
| CC1(C)CNC(=O)c2cc(NC(=O)c3cccnc3Nc3ccc4cn[nH]c4c3)ccc21 [Example 105, N-(4,4-Dimethyl-1-oxo-1,2,3,4-tetrahydro-isoquinolin-7-yl)-2-(1H-indazol-6-ylamino)-nicotinamide] | < 0.05 |
| CC(C)c1ccc(NC(=O)c2cccnc2Nc2ccc3cn[nH]c3c2)cc1 [Example 5, 2-(1H-Indazol-6-ylamino)-N-(4-isopropyl-phenyl)nicotinamide] | < 0.05 |
| O=C(Nc1cccc(C(O)(C(F)(F)F)C(F)(F)F)c1)c1cccnc1Nc1cccc2c1CNC2=O [Example 609, 2-(1-Oxo-2,3-dihydro-1H-isoindol-4-ylamino)-N-[3-(2,2,2-trifluoro-1-hydroxy-1-trifluoromethyl-ethyl)-phenyl]-nicotinamide] | < 0.05 |
| COCCOCCOC(c1ccc(NC(=O)c2cccnc2Nc2ccc3cn[nH]c3c2)cc1)(C(F)(F)F)C(F)(F)F [Example 64] | < 0.05 |
